Experimental data from US9657024B2, “Substituted triazolo-pyrimidine compounds for modulating cell proliferation, differentiation and survival” (STATegics, Inc., priority 2012, dated 2017).

Legend:
TF-1 cells = test: TF-1 cell proliferation; type: cell-based, human; settings: at concentrations that provided significant neuroprotective effects
frataxin [1] = test: Frataxin protein levels in primary human fetal neurons (ELISA); type: cell-based; settings: 28 days in culture, 24 h, relative to total protein
Method: The effects of the compounds on frataxin protein levels in cells were analyzed. […] Embryonic mouse cell line P19 was differentiated into neuronal cells in the presence of retinoic acid and frataxin levels were measured (FIG. 4A). Frataxin levels were measured after 24 h by multi-species frataxin-ELISA (MitoSciences) and compared to total protein levels. The data represent mean+SEM. Primary human fetal neurons (28 days in culture) were also incubated for 24 h in the presence of the compounds, and human frataxin levels were measured by ELISA (MitoSciences) and compared to total protein levels (FIG. 4B). The data represent mean+SEM of triplicate measurements. Compounds were also tested for their effects on frataxin levels in cells derived from patients with FRDA. Cultures of patient peripheral blood mononuclear cells (PBMCs) were also used to test the EPO mimetic compounds for frataxin enhancement in frataxin-deficient cells. Compound 1 and Compounds 5-6 enhanced frataxin levels in these patient cells at concentration 1 uM or lower.

rats = test: Kidney and CNS protection in rats with DMA + Cremophor EL toxicity; type: in vivo, rat; settings: DMA + CrEL 2.5 mL/kg each, IP
Method: High-dose N,N-dimethylacetamide (DMA)+ Cremophor EL (CrEL) (2.5 mL/kg each, IP) was used to induce acute CNS and organ toxicity, and the potential of Compound 5 to protect the rats was studied.

EPO receptor [2] = biological target: T1, EPO receptor (Homo sapiens, UniProt P19235); test: EPO receptor phosphorylation in primary human fetal neural cells (phospho-EPOR ELISA); type: cell-based; parameters: endogenous in cells; host or cells: primary human fetal neural cells from micro-dissected fetal brain tissue (Advanced Bioscience Resources, Inc.); settings: 10 min incubation; for level of EPO receptor activation compared with recombinant human EPO: EPO 10 IU/ml
T1 sequence (P19235 25-508): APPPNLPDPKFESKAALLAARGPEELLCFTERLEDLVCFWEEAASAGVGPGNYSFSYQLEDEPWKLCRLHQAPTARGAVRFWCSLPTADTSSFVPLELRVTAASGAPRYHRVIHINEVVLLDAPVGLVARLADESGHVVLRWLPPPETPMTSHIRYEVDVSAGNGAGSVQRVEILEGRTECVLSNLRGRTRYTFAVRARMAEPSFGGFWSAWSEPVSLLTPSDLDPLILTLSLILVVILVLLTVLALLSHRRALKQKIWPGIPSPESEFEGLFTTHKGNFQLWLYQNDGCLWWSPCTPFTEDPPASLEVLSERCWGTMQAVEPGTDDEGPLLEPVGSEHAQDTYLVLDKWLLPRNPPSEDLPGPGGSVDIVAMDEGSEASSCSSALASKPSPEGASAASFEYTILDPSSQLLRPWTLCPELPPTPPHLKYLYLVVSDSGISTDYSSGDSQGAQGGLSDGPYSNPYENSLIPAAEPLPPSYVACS
Method: Primary micro-dissected fetal brain tissue was obtained from a commercial source (Advanced Bioscience Resources, Inc., Alameda, Calif.). Cultured primary human fetal neural cells (3 h, 1 day, 17 days, or 26 days in culture) were incubated with Compound 5, Compound 6, or controls for 10 min (FIG. 5A). Phospho-EPOR was detected by ELISA (R&D Systems). […] Human erythropoietic cell line TF-1 was cultured for 10 min in the presence of Compound 5, Compound 6, or the controls, and phospho-EPOR was detected by ELISA (R&D Systems). The data represent mean+SEM of triplicate cultures. […] The receptor activation results were consistent with functional cell based assays using primary human CD34+ bone marrow progenitor cells and erythroleukemia cell line TF-1.

EPO receptor [3] = biological target: T1, EPO receptor; test: EPO receptor phosphorylation in TF-1 cells (phospho-EPOR ELISA); type: cell-based; parameters: endogenous in cells; host or cells: TF-1 human erythroleukemia cell line; settings: TF-1, 10 min
Method: Primary micro-dissected fetal brain tissue was obtained from a commercial source (Advanced Bioscience Resources, Inc., Alameda, Calif.). Cultured primary human fetal neural cells (3 h, 1 day, 17 days, or 26 days in culture) were incubated with Compound 5, Compound 6, or controls for 10 min (FIG. 5A). Phospho-EPOR was detected by ELISA (R&D Systems). […] Human erythropoietic cell line TF-1 was cultured for 10 min in the presence of Compound 5, Compound 6, or the controls, and phospho-EPOR was detected by ELISA (R&D Systems). The data represent mean+SEM of triplicate cultures.

PC12 cells = test: PC12 cell survival under serum deprivation (CellTiter-Glo); type: cell-based, rat; settings: 72 hours; for minimal effective concentration: Rattus norvegicus, PC-12, NS = RLU increased <25% at 5 uM, read-out: PC12 cell proliferation (CellTiter-Glo ®) Concentration at which RLU increased >25% compared to medium control
Method: Each culture condition was performed in quadruplicate in each experiment and the mean values were calculated. The results represent mean±SEM of relative light unit values when compared to the mean values obtained in the presence of the medium alone. A total of 13 experiments were performed and the statistical significance was analyzed using GraphPad Prism software using ANOVA, followed by paired t-test. The symbol * indicates P-values<0.01.
PC12 cells were cultured in DMEM supplemented with 10% fetal calf serum and 5% horse serum. […] Cell viability was analyzed by CellTiter-Glo® reagent (Promega).
PC12 cells were cultured in DMEM supplemented with 10% fetal calf serum and 5% horse serum. […] Cell survival of the serum-starved cells was analyzed by CellTiter-Glo® reagent luminescence reading.
FIG. 2 illustrates neuroprotective effects of Compounds 1-5 when tested in PC12 cell protection assays. PC12 cells were subjected to serum deprivation as described under FIG. 1.
PC12 cells were cultured in DMEM supplemented with 10% fetal calf serum and 5% horse serum. […] Cell survival of the serum-starved cells was analyzed by CellTiter-Glo® reagent luminescence reading (relative light units, “RLU”). […] “NS” indicates RLU increased <25% when compounds were tested at 5 uM.

[4] = test system: primary dopaminergic neurons; test: Protection of primary dopaminergic neurons from 6-OHDA (THir neurons); type: cell-based, rat; settings: 6.25 uM 6-OHDA 40 minute
Method: Dissociated embryonic D14 rat ventral mesencephalic cells were used.
Dopaminergic neurons play a key role in the pathogenesis of Parkinson's disease and compounds enhancing survival of these cells have significant therapeutic potential. Dissociated embryonic D14 rat ventral mesencephalic cells were used to test the potential of EPO mimetic compounds to protect primary dopaminergic neurons. […] The cells were plated in 48-well poly-D-lysine coated plates using a microisland technique. The microislands were seeded into dry plates in 10 uL aliquots of 3000 cells/uL and incubated at 37° C. for 1 h to allow for adhesion. […] On day 3, the medium was replaced with 6.25 uM 6-hydroxydopamine (6-OHDA, Sigma) for a 40 minute incubation. The toxin was then removed and the cells were cultured for an additional 2 days. On day 5, the cells were fixed, permeabilized and stained for tyrosine hydroxylase-immunoreactive (THir) neurons.

frataxin [5] = settings: 8 FRDA patients, open label pilot trial; cited from earlier work
frataxin [6] = settings: patients with chronic kidney disease, rhEPO infusion for anemia; cited from earlier work
[7] = following intravenous administration; cited from earlier work
[8] = test system: human CD34+ hematopoietic stem cells; test: Proliferation of human CD34+ cells (ATP, CellTiterGlo); type: cell-based; settings: eight days in culture
Method: (§1) Compound 10 was tested at different concentrations for its ability to induce proliferation and differentiation of human CD34+ hematopoietic stem cells. Human CD34+ cells were purified by (FIG. 6A) immunomagnetic beads (>90% purity, purchased from Stem Cell Technologies) or (FIG. 6B) cell sorting (at Blood Systems Research Institute) and the cells were cultured in the presence of compounds for eight (FIG. 6A) or eleven (FIG. 6B) days. (FIG. 6A) The level of cell growth and survival was measured based on ATP levels (CellTiterGlo reagent), or (FIG. 6B) the expression level of CD235a was analyzed by flow cytometry as a marker for cell maturation. Cell survival was analyzed using the CellTiterGlo reagent to measure ATP levels as a marker of metabolically active cells that have not undergone apoptosis, and expression of CD235a as a marker of erythroid cell differentiation and as a specific marker for EPO-like erythropoietic activity.

[9] = test system: human CD34+ hematopoietic stem cells; test: Erythroid differentiation of human CD34+ cells (CD235a, flow cytometry); type: cell-based; settings: eleven days in culture
Method: as §1

With Cc1cc(C)n2nc(OCCOc3ccc(Cl)cc3)nc2n1 [Example 11, 2-[2-(4-chlorophenoxy)ethoxy]-5,7-dimethyl-[1,2,4]triazolo[1,5-a]pyrimidine] the “proliferation of TF-1 cells” value (TF-1 cells) was “did not induce proliferation of TF-1 cells”, the frataxin protein levels (frataxin [1]) was “increased frataxin protein levels” and the “kidney-protective effect (hypoproteinemia in serum)” value (rats) was “reduced hypoproteinemia in serum”. The “response to formalin injection” value (rats) was “normalized the response of the rats to formalin injection”, the EPO receptor phosphorylation (EPO receptor [2]) was “increased EPO receptor phosphorylation in a dose-dependent manner” and the “level of EPO receptor activation compared with recombinant human EPO” value (EPO receptor [2]) was “comparable to that induced by recombinant human EPO”. For the same compound, the “EPO receptor activation (phospho-EPOR)” value (EPO receptor [3]) was “did not activate EPO receptor”.

With Cc1cc(C)n2nc(SCCOc3ccc(Cl)cc3)nc2n1 [Example 1, 2-{[2-(4-chlorophenoxy)ethyl]sulfanyl}-5,7-dimethyl-[1,2,4]triazolo[1,5-a]pyrimidine] the “effect on PC12 cell viability compared with rhEPO” value (PC12 cells; compound at 1 uM, serum-free) was “at least a comparable effect on cell viability as rhEPO”, the “level of PC12 cell protection compared with rhEPO at 10 U/ml” value (PC12 cells; compound at 5 uM, serum-free) was “even higher level of protection than rhEPO” and the “concentration at which significant protective effect on PC12 cells was observed” value (PC12 cells; serum-free conditions) was 1 µM. The “protection of dopaminergic neurons from 6-OHDA toxicity” value ([4]; 1 uM) was “significantly protected”.

In the case of “rhEPO: recombinant human (rh)EPO, erythropoietin; positive control”, the “overall increase in frataxin in lymphocytes” value (frataxin [5]) is given as 24%, the “increase in frataxin levels in peripheral blood mononuclear cells” value (frataxin [6]) is given as 2-3 fold and the “concentration in human cerebrospinal fluid lower than in circulation” value [7] is given as “more than 1000 fold”. For the same compound, the “protection of dopaminergic neurons from 6-OHDA toxicity” value ([4]; 10 IU/ml) was “significantly protected”.

For Cc1cc(C)n2nc(SCCOc3ccc(F)c(Cl)c3)nc2n1 [Example 6, 2-{[2-(3-chloro-4-fluorophenoxy)ethyl]sulfanyl}-5,7-dimethyl-[1,2,4]triazolo[1,5-a]pyrimidine], the minimal effective concentration (PC12 cells; serum-free conditions) was under 5 µM.

In the case of CCc1cc(CC)n2nc(CCCOc3ccc(Cl)cc3)nc2n1 [Example 28, 2-[3-(4-chlorophenoxy)propyl]-5,7-diethyl-[1,2,4]triazolo[1,5-a]pyrimidine], the minimal effective concentration (PC12 cells; serum-free conditions) is reported as under 5 µM.

In the case of Cc1cc(C)n2nc(OCCN(CCO)c3ccccc3)nc2n1 [Example 13, 2-{[2-({5,7-Dimethyl-[1,2,4]triazolo[1,5-a]pyrimidin-2-yl}oxy)ethyl](phenyl)amino}ethan-1-ol], the “proliferation of TF-1 cells” value (TF-1 cells) is reported as “did not induce proliferation of TF-1 cells”, the frataxin protein levels (frataxin [1]) is reported as “increased frataxin protein levels” and the EPO receptor phosphorylation (EPO receptor [2]) is reported as “increased EPO receptor phosphorylation in a dose-dependent manner”. For the same compound, the “level of EPO receptor activation compared with recombinant human EPO” value (EPO receptor [2]) was “comparable to that induced by recombinant human EPO” and the “EPO receptor activation (phospho-EPOR)” value (EPO receptor [3]) was “did not activate EPO receptor”.

With COc1ccc(NC(=O)CSc2nc3nc(C)cc(C)n3n2)cc1 [Example 10, 2-({5,7-dimethyl-[1,2,4]triazolo[1,5-a]pyrimidin-2-yl}sulfanyl)-N-(4-methoxyphenyl)acetamide] the “CD34+ progenitor cell proliferation (ATP levels)” value [8] was “dose-dependent induction of CD34+ progenitor cell proliferation” and the “erythroid differentiation (CD235a expression)” value [9] was “differentiation into erythroid cells expressing CD235a”.
